In US7649018B2, “Mono- and di-phosphates of 3-(3-fluoro-4-hydroxy-phenyl)-7-hydroxy-naphthalene-1-carbonitrile” (Wyeth LLC, priority 2007, dated 2010):

Experiment: Stability of intravenous stock solution
Assay type: physicochemical
Conditions: stock solution 10 mg/mL in phosphate buffered saline adjusted to pH about 7.4 with NaOH; at 40 C
Description: Preparation Procedures: An intravenous formulation will be made as a stock solution (10 mg/mL) one day prior to the start of dosing consisting of phosphate buffered saline adjusted to pH about 7.4 with NaOH. The dosing formulations will be prepared on the day of dosing by diluting the appropriate amount of the stock solution with D5W to obtain concentrations of 3.14 mg/mL of Compound 3 and then will be sterile filtered using a 0.20 micron filter about few hours prior to the start of dosing. The test formulation was stored at approximately 4° C. protected from light. The vehicle used for IV introduction was phosphate buffered saline consisting of 0.0144% (w/v) of KH2PO4, 0.90% (w/v) of NaCL, 0.0795% (w/v) of Na2HPO4, 0.325% of NaOH (1N) and […] sterile water for injection with the resulting pH of approximately 7.4. The stock solution (10 mg/mL) is stable for 7 days at 40 C.

For `N#Cc1cc(-c2ccc(OP(=O)(O)O)c(F)c2)cc2ccc(OP(=O)(O)O)cc12` [Compound 3], the “Time over which stock solution is stable” value was 7 days.
